The values below come from PMC4872591, “An evaluation of Minor Groove Binders as anti-Trypanosoma brucei brucei therapeutics” (European Journal of Medicinal Chemistry, 2016).

Like-named read-outs stand apart in the source and are kept apart here.

In this test the test system is Bloodstream form T. b. brucei (Lister 427). The test is described as follows: Trypanosoma brucei brucei Alamar Blue assay. The test is classed as cell-based. The protocol:
IC50 values against trypanosomes were determined by Alamar Blue assay. […] After this time, 20 μL of resazurin dye (Sigma–Aldrich) solution at 0.49 mM was added. […] Output was plotted using the IC50 determination algorithm of Prism 5.0 software (GraphPad). Three independent experiments were carried out in duplicate for each compound.
(The colour change of resazurin is a common sign of viable cells or microbes.)

Where [1] appears, read: Trypanosoma brucei, Table 1, Alamar Blue, 48 h + 24 h, all standard deviations less than 2%, read-out: IC50 against Trypanosoma brucei brucei.
[2] abbreviates: Trypanosoma brucei, Table S2 (supplement), T. b. brucei activity, read-out: IC50.
Setting [3] is: Table 1, Alamar Blue, 48 h + 24 h, all standard deviations less than 2%, read-out: IC50 against Trypanosoma brucei brucei.
The mark [4] stands for this setting: Trypanosoma brucei, values in μM, read-out: IC50 against T. b. brucei.

A word on the IC50: it is the point on the concentration scale where inhibition reaches its midpoint.

For `Cn1cc(NC(=O)c2cc(NC(=O)c3cc(NC(=O)c4ccc(Cl)cc4Cl)cn3C)cn2C)cc1C(=O)NCCN1CCOCC1` [Compound 3, 4-[(2,4-Dichlorobenzoyl)amino]-1-methyl-N-[1-methyl-5-({[1-methyl-5-({[2-(4-morpholinyl)ethyl]amino}carbonyl)-1H-pyrrol-3-yl]amino}carbonyl)-1H-pyrrol-3-yl]-1H-pyrrole-2-carboxamide], the half-maximal inhibitory concentration (IC50) under setting [1] came out at 0.4 µM.
Take `COc1cccc(/C=C/c2cccc(C(=O)Nc3cc(C(=O)Nc4nc(C(=O)NCCCN(C)C)c(CCC(C)C)s4)n(C)c3)c2)c1` [Compound 12, N-[3-(Dimethylamino)propyl]-5-isopentyl-2-({[4-({3-[(E)-2-(3-methoxyphenyl)ethenyl]benzoyl}amino)-1-methyl-1H-pyrrol-2-yl]carbonyl}amino)-1,3-thiazole-4-carboxamide]: the half-inhibitory concentration (IC50) by setting is: under setting [1], 0.18 µM; under setting [2], 0.28 µM.
As for `CC(C)n1cc(NC(=O)c2cc(NC(=O)c3cnc(Cl)c(Cl)c3)cn2C)cc1C(=O)Nc1cc(C(=O)NCCCN(C)C)n(C)c1` [Compound 6, 5,6-Dichloro-N-[5-({[5-({[5-({[3-(dimethylamino)propyl]amino}carbonyl)-1-methyl-1H-pyrrol-3-yl]amino}carbonyl)-1-isopropyl-1H-pyrrol-3-yl]amino}carbonyl)-1-methyl-1H-pyrrol-3-yl]nicotinamide], the half-inhibitory concentration (IC50) under setting [1] was found to be 4 µM.
The same measure, in the same setting: the same measure for `Cn1cc(NC(=O)c2cc(NC(=O)c3ccc(/C=C/c4ccc(C(F)(F)F)cc4)cc3)cn2C)cc1C(=O)NCCN1CCOCC1` [Compound 22, 1-methyl-N-[1-methyl-5-({[2-(4-morpholinyl)ethyl]amino}carbonyl)-1H-pyrrol-3-yl]-4-[(4-{(E)-2-[4-(trifluoromethyl)phenyl]ethenyl}benzoyl)amino]-1H-pyrrole-2-carboxamide]: 0.73 µM.
On to `Cn1cc(NC(=O)c2cc(NC(=O)c3cc4ccccc4cn3)cn2C)cc1C(=O)NCCN1CCOCC1` [Compound 14, N-[1-Methyl-5-({[1-methyl-5-({[2-(4-morpholinyl)ethyl]amino}carbonyl)-1H-pyrrol-3-yl]amino}carbonyl)-1H-pyrrol-3-yl]-3-isoquinolinecarboxamide], for which the IC50 by setting is: under setting [1], 0.97 µM; under setting [2], 0.21 µM.
On to “4-(Formylamino)-1-methyl-N-[1-methyl-5-({[1-methyl-5-({[2-(4-morpholinyl)ethyl]amino}carbonyl)-1H-pyrrol-3-yl]amino}carbonyl)-1H-pyrrol-3-yl]-1H-pyrrole-2-carboxamide [Compound 4]”, for which the IC50 under setting [3] came out at 48 µM.
Turning to `CN(C)CCCNC(=O)c1cc(NC(=O)c2cc(NC(=O)c3cc(NC(=N)c4ccccc4)cn3C)cn2C)cn1C` [Compound 1, N-[5-({[5-({[3-(Dimethylamino)propyl]amino}carbonyl)-1-methyl-1H-pyrrol-3-yl]amino}carbonyl)-1-methyl-1H-pyrrol-3-yl]-4-{[imino(phenyl)methyl]amino}-1-methyl-1H-pyrrole-2-carboxamide], the IC50 is, setting by setting: under setting [1], above 75 µM; under setting [4], above 75 µM.
Consider `Cn1cc(NC(=O)c2cc(NC(=O)c3ccc(/C=C/c4cccc(F)c4)cc3)cn2C)cc1C(=O)NCCN1CCOCC1` [Compound 27, 4-({4-[(E)-2-(3-fluorophenyl)ethenyl]benzoyl}amino)-1-methyl-N-[1-methyl-5-({[2-(4-morpholinyl)ethyl]amino}carbonyl)-1H-pyrrol-3-yl]-1H-pyrrole-2-carboxamide], for which the IC50 under setting [1] came to 0.22 µM.
As for `Cn1cc(NC(=O)c2cc(NC(=O)c3ccc(/C=C/c4nc5ccccc5o4)cc3)cn2C)cc1C(=O)NCCN1CCOCC1` [Compound 16, 4-({4-[(E)-2-(1,3-benzoxazol-2-yl)ethenyl]benzoyl}amino)-1-methyl-N-[1-methyl-5-({[2-(4-morpholinyl)ethyl]amino}carbonyl)-1H-pyrrol-3-yl]-1H-pyrrole-2-carboxamide], the IC50 was determined as 0.79 µM under setting [1] and 2.2 µM under setting [2].
Consider `Cn1cc(NC(=O)c2cc(NC(=O)c3cc(NC(=O)c4ccc(Cl)cc4Cl)cn3C)cn2C)cc1C(=O)NCCCN1CCOCC1` [Compound 25, 4-[(2,4-Dichlorobenzoyl)amino]-1-methyl-N-[1-methyl-5-({[1-methyl-5-({[3-(4-morpholinyl)propyl]amino}carbonyl)-1H-pyrrol-3-yl]amino}carbonyl)-1H-pyrrol-3-yl]-1H-pyrrole-2-carboxamide], for which the half-inhibitory concentration (IC50) by setting is: under setting [1], 2.3 µM; under setting [2], 0.79 µM.
For `CN(C)CCCNC(=O)c1cc(NC(=O)c2cc(NC(=O)c3cc4ccccc4cn3)cn2C)cn1C` [Compound 15, N-[5-({[5-({[3-(Dimethylamino)propyl]amino}carbonyl)-1-methyl-1H-pyrrol-3-yl]amino}carbonyl)-1-methyl-1H-pyrrol-3-yl]-3-isoquinolinecarboxamide] the same measures were 2.2 µM and 0.97 µM.
In the case of `CSc1ccc(/C=C/c2ccc3cc(C(=O)Nc4cc(C(=O)Nc5cc(C(=O)NCCN6CCOCC6)n(C)c5)n(C)c4)ccc3n2)cc1` [Compound 31, N-[1-methyl-5-({[1-methyl-5-({[2-(4-morpholinyl)ethyl]amino}carbonyl)-1H-pyrrol-3-yl]amino}carbonyl)-1H-pyrrol-3-yl]-2-{(E)-2-[4-(methylsulfanyl)phenyl]ethenyl}-6-quinolinecarboxamide], under setting [1], the IC50 amounted to 5 µM.
On the same count and under the same terms, for `Cn1cc(NC(=O)c2cc(NC(=O)c3ccc(/C=C/c4ccncc4)cc3)cn2C)cc1C(=O)NCCN1CCOCC1` [Compound 24, 1-Methyl-N-[1-methyl-5-({[2-(4-morpholinyl)ethyl]amino}carbonyl)-1H-pyrrol-3-yl]-4-({4-[(E)-2-(4-pyridinyl)ethenyl]benzoyl}amino)-1H-pyrrole-2-carboxamide] the value was 0.38 µM.
With `CC(=N)Nc1cc(C(=O)Nc2cc(C(=O)Nc3cc(C(=O)NCCCN(C)C)n(C)c3)n(C)c2)n(C)c1` [Compound 2, N-[5-({[5-({[3-(Dimethylamino)propyl]amino}carbonyl)-1-methyl-1H-pyrrol-3-yl]amino}carbonyl)-1-methyl-1H-pyrrol-3-yl]-4-(ethanimidoylamino)-1-methyl-1H-pyrrole-2-carboxamide], the IC50 under setting [1] is above 75 µM and the half-inhibitory concentration (IC50) under setting [4] is above 75 µM.
With `COc1ccc(/C=C/c2ccc3cc(C(=O)Nc4cc(C(=O)Nc5cc(C(=O)NCCN6CCOCC6)n(C)c5)n(C)c4)ccc3n2)cc1` [Compound 30, 2-[(E)-2-(4-Methoxyphenyl)ethenyl]-N-[1-methyl-5-({[1-methyl-5-({[2-(4-morpholinyl)ethyl]amino}carbonyl)-1H-pyrrol-3-yl]amino}carbonyl)-1H-pyrrol-3-yl]-6-quinolinecarboxamide], the concentration for half-maximal inhibition (IC50) under setting [1] stood at 0.63 µM.
With “2-{[(4-{[(4-{[Imino(4-methoxy-2-pyridinyl)methyl]amino}-1-methyl-1H-pyrrol-2-yl)carbonyl]amino}-1-methyl-1H-pyrrol-2-yl)carbonyl]amino}-5-isopropyl-N-[2-(4-morpholinyl)ethyl]-1,3-thiazole-4-carboxamide [Compound 5]”, the IC50 is above 75 µM under setting [3] and above 75 µM (values in μM, read-out: IC50 against T. b. brucei).
Regarding `CC(C)CCc1sc(NC(=O)c2cc(NC(=O)c3cc(/C=C/c4ccc([N+](=O)[O-])cc4)cn3C)cn2C)nc1C(=O)NCCCN(C)C` [Compound 13, N-[3-(dimethylamino)propyl]-5-isopentyl-2-[({1-methyl-4-[({1-methyl-4-[(E)-2-(4-nitrophenyl)ethenyl]-1H-pyrrol-2-yl}carbonyl)amino]-1H-pyrrol-2-yl}carbonyl)amino]-1,3-thiazole-4-carboxamide], the concentration for half-maximal inhibition (IC50) stood at 0.21 µM under setting [1] and 0.18 µM under setting [2].
For the compound `COc1cccc(C(=N)Nc2cc(C(=O)Nc3cc(C(=O)Nc4cc(C(=O)NCCCN(C)C)n(C)c4)n(C(C)C)c3)n(C)c2)c1` [Compound 7, N-[5-({[5-({[3-(Dimethylamino)propyl]amino}carbonyl)-1-methyl-1H-pyrrol-3-yl]amino}carbonyl)-1-isopropyl-1H-pyrrol-3-yl]-4-{[imino(3-methoxyphenyl)methyl]amino}-1-methyl-1H-pyrrole-2-carboxamide], the IC50 under setting [1] amounted to 27 µM.
The same measure, in the same setting: for `CC(C)CCc1sc(NC(=O)c2cc(NC(=O)c3cc4ccccc4cn3)cn2C)nc1C(=O)NCCCN(C)C` [Compound 18, N-[5-({[4-({[3-(Dimethylamino)propyl]amino}carbonyl)-5-isopentyl-1,3-thiazol-2-yl]amino}carbonyl)-1-methyl-1H-pyrrol-3-yl]-3-isoquinolinecarboxamide] the value was 0.39 µM; for `Cn1cc(NC(=O)c2cc(NC(=O)c3ccc(/C=C/c4ccc(F)cc4)cc3)cn2C)cc1C(=O)NCCN1CCOCC1` [Compound 26, 4-({4-[(E)-2-(4-fluorophenyl)ethenyl]benzoyl}amino)-1-methyl-N-[1-methyl-5-({[2-(4-morpholinyl)ethyl]amino}carbonyl)-1H-pyrrol-3-yl]-1H-pyrrole-2-carboxamide], 0.71 µM.
In the case of `COc1cccc(/C=C/c2ccc(C(=O)Nc3cc(C(=O)Nc4nc(C(=O)NCCCN(C)C)c(CCC(C)C)s4)n(C)c3)cc2)c1` [Compound 11, N-[3-(dimethylamino)propyl]-5-isopentyl-2-({[4-({4-[(E)-2-(3-methoxyphenyl)ethenyl]benzoyl}amino)-1-methyl-1H-pyrrol-2-yl]carbonyl}amino)-1,3-thiazole-4-carboxamide], the IC50 amounted to 0.28 µM under setting [1] and 0.3 µM under setting [2].
Take `N=C(N)c1ccc(/N=N/Nc2ccc(C(=N)N)cc2)cc1` [Diminazene, diminazene, reference compound]: the IC50 (Trypanosoma brucei, values given in nM, read-out: IC50 against T. b. brucei) came out at 0.005 µM.
